Measurements: patent publication US20070128217A1 (priority 2003, published 2007)

Columns and labels:
[1] = test system: control sera (pooled serum of ten healthy LUMC hospital workers; commercial negative donor pooled serum from the Dutch bloodbank); assay type: binding, human; parameters: Binding of Control serum LUMC to linear peptides / Binding of Control serum Blood-bank to linear peptides / Binding of Control serum LUMC to looped peptides / Binding of Control Serum Blood-Bank to Looped peptides / Binding of Control serum LUMC to linear peptides of the protein M of SARS-CoV Urbani / Binding of Control serum Blood-bank to linear peptides of the protein M of SARS-CoV Urbani / Binding of Control serum LUMC to looped peptides of the protein M of SARS-CoV Urbani / Binding of Control Serum Blood-Bank to Looped peptides of the protein M of SARS-CoV Urbani: unit not given here
[2] = test system: rabbit serum obtained by immunizing a rabbit with the SARS-CoV strain Frankfurt 1; assay type: binding; parameters: Binding of a rabbit serum to linear peptides / Binding of a rabbit serum to looped peptides / Rabbit serum linear peptides / Rabbit serum looped peptides / Binding of a rabbit serum to linear peptides of protein N of SARS-CoV Urbani (Rabbit serum linear peptides) / Binding of a rabbit serum to looped/cyclic peptides of protein N of SARS-CoV Urbani (Rabbit serum looped peptides): unit not given here

Sequence | Binding of Control Serum Blood-Bank to Looped peptides [1] | Binding of Control serum Blood-bank to linear peptides [1] | Binding of Control serum LUMC to linear peptides [1] | Binding of Control serum LUMC to looped peptides [1] | Rabbit serum linear peptides [2] | Rabbit serum looped peptides [2] | further results
GGYSEDRHSGVKDYV | 0.4 | 0.6 | 0.4 | 0.5 | – | – | Binding of a rabbit serum to linear peptides [2]: 0.1; Binding of a rabbit serum to looped peptides [2]: 0.2
STPKLKEDYQIGGYS | 0.2 | 0.7 | 0.7 | 0.3 | – | – | Binding of a rabbit serum to linear peptides [2]: 0.1; Binding of a rabbit serum to looped peptides [2]: 0.3
ELYHYQECVRGTTVL | 0.7 | 0.7 | 0.6 | 0.7 | 0.7 | 0.7 | –
GTYEGNSPFHPLADN | 0.9 | 0.7 | 0.8 | 0.7 | 0.6 | 0.5 | –
FQHQNSKKTTKLVVI | 0.4 | 0.5 | 0.7 | 0.5 | – | – | Recognition of the peptide by the rabbit serum [2]: recognized
IIMRTFRIAIWNLDV | – | – | – | – | 0.3 | 0.5 | Binding of Control Serum Blood-Bank to Looped peptides of the protein X3 of SARS-CoV Urbani [1]: 0.9; Binding of Control serum Blood-bank to linear peptides of the protein X3 of SARS-CoV Urbani [1]: 0.9; Binding of Control serum LUMC to linear peptides of the protein X3 of SARS-CoV Urbani [1]: 0.7; Binding of Control serum LUMC to looped peptides of the protein X3 of SARS-CoV Urbani [1]: 0.6
ASQRVGTDSGFAAYN | – | – | – | – | 0.4 | 0.1 | Binding of Control Serum Blood-Bank to Looped peptides of the protein M of SARS-CoV Urbani [1]: 0.7; Binding of Control serum Blood-bank to linear peptides of the protein M of SARS-CoV Urbani [1]: 0.8; Binding of Control serum LUMC to linear peptides of the protein M of SARS-CoV Urbani [1]: 0.5; Binding of Control serum LUMC to looped peptides of the protein M of SARS-CoV Urbani [1]: 0.8
